{
  "source": "patent US20230210807A1",
  "about": "“USE OF BENZOATE COMPOUND IN TREATMENT OF SARS-COV-2 INFECTIONS” (ACADEMY OF MILITARY MEDICAL SCIENCES, priority 2020, published 2023)",
  "key": {"[1]": {"test_system": "MERS-CoV", "details": "in vitro, cited from earlier work"}, "[2]": {"test_system": "SARS-CoV-2", "experiment": "Reduction of viral nucleic acid load in SARS-CoV-2 infected Vero E6 cells (qRT-PCR of supernatant)", "type": "cell-based, SARS-CoV-2 (nCoV-2019BetaCoV/Wuhan/WIV04/2019 strain)", "details": "for Copy number of virus genome: Vero E6 cells, 100TCID50, 48 hours"}, "[3]": {"test_system": "Vero-E6 cells", "experiment": "Cytotoxicity test of drugs (CCK-8 kit)", "details": "48 hours; for Cell viability (% of vehicle control): Vero-E6 cells"}},
  "note": "“Also recorded” adds a separate entry of the source.",
  "data": [
    {"molecule": "N=C(N)c1ccc2cc(OC(=O)c3ccc(N=C(N)N)cc3)ccc2c1", "note": "[Nafamostat, 6-amidino-2-naphthyl-4-guanidino benzoate]", "values": [
      {"measurement": "IC50 relative to that of Camostat (times higher)", "setting": "[1]; versus Camostat", "value": 10, "unit": "times"},
      {"measurement": "IC50", "setting": "[1]; read-out: IC50 (MERS-CoV infection in vitro)", "value": 0.1, "unit": "µM"},
      {"measurement": "Copy number of virus genome", "setting": "[2]; 0.14 µM", "value": "1169068894.5±28678551.13"},
      {"measurement": "Copy number of virus genome", "setting": "[2]; 0.41 µM", "value": "2051893138.5±1115069812.46"},
      {"measurement": "Copy number of virus genome", "setting": "[2]; 1.23 µM", "value": "2805092897.49±419609425.32"},
      {"measurement": "Copy number of virus genome", "setting": "[2]; 3.70 µM", "value": "3601892897.5±680084251.56"},
      {"measurement": "Copy number of virus genome", "setting": "[2]; 11.11 µM", "value": "2116737884±785155013.49"},
      {"measurement": "Copy number of virus genome", "setting": "[2]; 33.33 µM", "value": "1015568394.5±70116949.22"},
      {"measurement": "Copy number of virus genome", "setting": "[2]; 100 µM, copies per milliliter per method", "value": "395904281±285024470.56"},
      {"measurement": "Viral RNA load in the cells (in words)", "setting": "[2]; 48 hours after infection by SARS-CoV-2, Vero E6 cells, FIG. 1(a)", "value": "can reduce the viral RNA load"},
      {"measurement": "Inhibition of replication of SARS-CoV-2 virus genome in the infected supernatant (in words)", "setting": "[2]; concentrations of 100 µM, 33 µM, 11.1 µM and 3.7 µM", "value": "could effectively inhibit the replication of SARS-CoV-2 virus genome"},
      {"measurement": "Cell viability (% of vehicle control)", "setting": "[3]; 0.14 µM", "value": "103.25±2.53 % of vehicle control"},
      {"measurement": "Cell viability (% of vehicle control)", "setting": "[3]; 0.41 µM", "value": "106.14±1.77 % of vehicle control"},
      {"measurement": "Cell viability (% of vehicle control)", "setting": "[3]; 1.23 µM", "value": "95.85±2.57 % of vehicle control"},
      {"measurement": "Cell viability (% of vehicle control)", "setting": "[3]; 3.70 µM", "value": "94.88±4.44 % of vehicle control"},
      {"measurement": "Cell viability (% of vehicle control)", "setting": "[3]; 11.11 µM", "value": "93.68±1.83 % of vehicle control"},
      {"measurement": "Cell viability (% of vehicle control)", "setting": "[3]; 33.33 µM", "value": "92.64±2.16 % of vehicle control"},
      {"measurement": "Cell viability (% of vehicle control)", "setting": "[3]; 100 µM", "value": "92.65±3.37 % of vehicle control"},
      {"measurement": "Cytotoxicity (in words)", "setting": "[3]; all test concentrations, Vero E6 cells", "value": "no cytotoxicity was observed; also recorded: no toxic effect on the cells at all concentrations"}
    ]}
  ]
}
